Reference: patent US12084473B2, “β-D-2′-deoxy-2′-α-fluoro-2′-β-C-substituted-2-modified-N6-substituted purine nucleotides for HCV treatment” (Atea Pharmaceuticals, Inc., priority 2015, dated 2024)
Where two headings read alike, the source gives them in different places.

Key:
[1] = tested on: HCV genotype 1b luciferase reporter replicon; assay: microbe, parasite or virus in culture; assay type: cell-based
Experimental: (§1) The plates were cultured for 24 hours prior to the addition of compounds. Six serial one half log dilutions of the test articles (high test concentration of 100.0 μM or high test concentration of 1.0 μM) and human interferon-alpha2b (high test 10.0 U/ml) were prepared in cell culture medium and added to the cultured cells in triplicate wells for each dilution. Six wells in the test plates received medium alone as an untreated control. Following 72 hours of culture in the presence of compound, one of the plates was used for the determination of cytotoxicity by staining with XTT and the other for antiviral efficacy by determination of luciferase reporter activity. Cytotoxicity and efficacy data were collected and imported into a customized Excel workbook for determination of the TC50 and EC50 values. […] The y-axis is the percent of virus control and the x-axis is the concentration of drug in μM. […] The y-axis is the percent of virus control and the x-axis is the concentration of drug in M.

[2] = Cytotoxicity by XTT staining in replicon cells; conditions: human
Experimental: as §1

Huh-7 luc/neo ET cells = assay: Cytotoxicity by XTT staining in replicon cells
Experimental: as §1

iPS Cardiomyocytes = assay: iPS Cardiomyocyte Assay; assay type: cell-based, human; conditions: 3 days, XTT
Experimental: iPS Cardiomyocytes (Cellular Dynamics) were seeded in microliter plates at 1.5×10^4 cells per well. After 48-hr incubation, cells were washed and maintenance medium containing serially diluted TA was added in triplicate. After incubating for an additional 3 days, cell viability was measured by staining with XTT and CC50 values were calculated.

human DNA polymerase α = molecular target: T1, human DNA polymerase α (Homo sapiens, UniProt P09884); assay: Human DNA Polymerase Assays; assay type: biochemical; conditions: at concentrations up to 100 μM
T1 construct: purchased CHIMERx
T1 sequence (P09884 1-1462): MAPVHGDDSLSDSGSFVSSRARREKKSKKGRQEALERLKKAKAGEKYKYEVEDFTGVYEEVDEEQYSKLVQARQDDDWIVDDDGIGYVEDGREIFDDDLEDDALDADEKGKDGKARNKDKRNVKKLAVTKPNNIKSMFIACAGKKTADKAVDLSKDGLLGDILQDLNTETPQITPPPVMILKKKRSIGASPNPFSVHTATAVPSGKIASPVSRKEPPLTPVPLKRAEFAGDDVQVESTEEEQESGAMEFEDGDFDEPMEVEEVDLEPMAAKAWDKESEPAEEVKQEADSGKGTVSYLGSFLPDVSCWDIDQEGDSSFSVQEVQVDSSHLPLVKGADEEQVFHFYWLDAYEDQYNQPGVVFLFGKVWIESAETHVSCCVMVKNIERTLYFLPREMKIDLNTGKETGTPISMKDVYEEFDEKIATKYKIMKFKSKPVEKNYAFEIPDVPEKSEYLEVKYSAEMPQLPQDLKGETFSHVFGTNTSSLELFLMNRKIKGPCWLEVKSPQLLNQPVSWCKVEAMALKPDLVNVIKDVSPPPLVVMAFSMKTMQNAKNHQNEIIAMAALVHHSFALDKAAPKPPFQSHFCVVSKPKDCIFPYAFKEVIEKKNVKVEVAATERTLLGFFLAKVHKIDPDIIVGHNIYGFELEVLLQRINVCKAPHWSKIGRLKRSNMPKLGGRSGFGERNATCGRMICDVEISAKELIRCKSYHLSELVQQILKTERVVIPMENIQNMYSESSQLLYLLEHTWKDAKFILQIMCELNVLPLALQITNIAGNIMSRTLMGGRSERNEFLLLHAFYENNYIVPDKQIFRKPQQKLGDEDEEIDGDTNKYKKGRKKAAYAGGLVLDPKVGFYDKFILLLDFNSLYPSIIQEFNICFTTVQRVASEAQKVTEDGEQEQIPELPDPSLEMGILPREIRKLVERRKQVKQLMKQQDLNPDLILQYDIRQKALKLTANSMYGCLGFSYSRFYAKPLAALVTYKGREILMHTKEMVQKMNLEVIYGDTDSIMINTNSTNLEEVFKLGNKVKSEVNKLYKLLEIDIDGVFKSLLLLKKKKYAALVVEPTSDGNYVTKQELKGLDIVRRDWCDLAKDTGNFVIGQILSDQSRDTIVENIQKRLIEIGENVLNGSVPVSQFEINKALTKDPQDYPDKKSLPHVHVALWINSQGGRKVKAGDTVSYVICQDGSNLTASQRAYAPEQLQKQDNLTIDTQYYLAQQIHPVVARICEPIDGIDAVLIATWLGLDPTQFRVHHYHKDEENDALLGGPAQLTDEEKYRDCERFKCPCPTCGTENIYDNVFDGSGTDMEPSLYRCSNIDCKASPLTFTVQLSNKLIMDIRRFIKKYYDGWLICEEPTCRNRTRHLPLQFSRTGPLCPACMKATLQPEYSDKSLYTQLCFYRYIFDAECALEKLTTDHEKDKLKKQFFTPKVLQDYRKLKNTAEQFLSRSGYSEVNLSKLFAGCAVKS
Experimental: (§2) Inhibition of human DNA polymerases α, β and γ (CHIMERx) was determined in triplicate in reaction mixtures of serially diluted TA, 0.05 mM dCTP, dTTP, and dATP, 10 μCi [^32P]-α-dGTP (800 Ci/mmol), 20 μg activated calf thymus DNA and additional reagents specific for each polymerase.

human DNA polymerase β = molecular target: T2, human DNA polymerase β (Homo sapiens, UniProt P06746); assay: Human DNA Polymerase Assays; assay type: biochemical; conditions: at concentrations up to 100 μM
T2 construct: purchased CHIMERx
Experimental: as §2

[3] = Hepatitis C virus; Huh-7 luc/neo ET cells, 72 hours, luciferase; read-out: HCV Replicon EC50/EC95: EC95
[4] = Hepatitis C virus; read-out: EC50 in a replicon assay
[5] = read-out: HCV Replicon CC50, XTT, 72 hours

In the case of CNc1nc(N)nc2c1ncn2[C@@H]1OC(CO[P@@](=O)(N[C@@H](C)C(=O)OC(C)C)Oc2ccccc2)[C@@H](O)[C@@]1(C)F (stereo partly shown) [Compound 5-2], the “fold increase in activity (versus parent nucleoside)” value [1] is reported as ≥ 3,900, the EC95 [1, 3] is reported as 28 nM and the EC50 [1, 4] is reported as 4 nM. The “Fold increase in activity compared to parent nucleoside” value (“Fold increase … to parent nucleoside” below) ([1]; Table 7) was >3,900, the CC50 at 72 h [2] was > 100000 nM and the TC50 (Huh-7 luc/neo ET cells) was “greater than one hundred”. The “cytotoxicity against iPS cardiomyocytes in vitro” value (from here on “cytotoxicity”) (iPS Cardiomyocytes) was “no cytotoxicity”.
In the case of CC(C)OC(=O)[C@H](C)N[P@](=O)(OCC1O[C@@H](n2cnc3c(N(C)C)nc(N)nc32)[C@](C)(F)[C@@H]1O)Oc1ccccc1 (stereo partly drawn) [Compound 25, isopropyl ((((S)-(2R,3R,4R,5R)-5-(2-amino-6-(dimethylamino)-9H-purin-9-yl)-4-fluoro-3-hydroxy-4-methyltetrahydrofuran-2-yl)methoxy)-phenoxy-phosphoryl)-L-alaninate], the “fold increase in activity (versus parent nucleoside)” value [1] is reported as ≥ 2,600, the EC95 [1, 3] is reported as 19 nM and the EC50 [1, 4] is reported as 4 nM. For the same compound, the “Fold increase … to parent nucleoside” value ([1]; Table 7) was >2,600, the CC50 at 72 h [2] was > 100000 nM and the CC50 (Huh-7 luc/neo ET cells; [5]) was > 100000 nM. The CC50 (Huh-7 luc/neo ET cells; read-out: TC50, FIG. 3 legend) was > 100000 nM, the “cytotoxicity” value (iPS Cardiomyocytes) was “no cytotoxicity” and the “inhibition of human DNA polymerase α” value (human DNA polymerase α) was “No inhibition”. The “inhibition of human DNA polymerase β” value (human DNA polymerase β) was “No inhibition”.
In the case of CC(C)OC(=O)[C@H](C)N[P@](=O)(OCC1O[C@@H](n2cnc3c(N(C)C4CC4)nc(N)nc32)[C@](C)(F)[C@@H]1O)Oc1ccccc1 (stereo partly drawn) [Compound 27, isopropyl ((((S)-(2R,3R,4R,5R)-5-(2-amino-6-(methylcyclopropanamino)-9H-purin-9-yl)-4-fluoro-3-hydroxy-4-methyltetrahydrofuran-2-yl)methoxy)-phenoxy-phosphoryl)-L-alaninate], the EC50 ([1]; Hepatitis C virus, read-out: EC50 in a replicon assay) is reported as 5 nM, the EC95 [1, 3] is reported as 25 nM and the “Fold increase … to parent nucleoside” value ([1]; Table 7) is reported as >1,100. For the same compound, the CC50 at 72 h [2] was > 100000 nM, the CC50 (Huh-7 luc/neo ET cells; [5]) was > 100000 nM and the “cytotoxicity” value (iPS Cardiomyocytes) was “no cytotoxicity”. The “inhibition of human DNA polymerase α” value (human DNA polymerase α) was “No inhibition” and the “inhibition of human DNA polymerase β” value (human DNA polymerase β) was “No inhibition”.
